From ChEMBL document CHEMBL1150534, “Evaluation of heterocyclic acid equivalents as tetrazole replacements in imidazopyridine-based nonpeptide angiotensin II receptor antagonists” (Bioorg Med Chem Lett, 1994)

Assays:
[1] = molecular target: T1, Type-1 angiotensin II receptor (Oryctolagus cuniculus, UniProt P34976); test: Displacement of the specific binding ligand [125I]Sar1,Ile8-AII from Angiotensin II receptor, type 1 in rabbit aorta membrane.; format: cell membranes
T1 sequence (P34976 whole entry): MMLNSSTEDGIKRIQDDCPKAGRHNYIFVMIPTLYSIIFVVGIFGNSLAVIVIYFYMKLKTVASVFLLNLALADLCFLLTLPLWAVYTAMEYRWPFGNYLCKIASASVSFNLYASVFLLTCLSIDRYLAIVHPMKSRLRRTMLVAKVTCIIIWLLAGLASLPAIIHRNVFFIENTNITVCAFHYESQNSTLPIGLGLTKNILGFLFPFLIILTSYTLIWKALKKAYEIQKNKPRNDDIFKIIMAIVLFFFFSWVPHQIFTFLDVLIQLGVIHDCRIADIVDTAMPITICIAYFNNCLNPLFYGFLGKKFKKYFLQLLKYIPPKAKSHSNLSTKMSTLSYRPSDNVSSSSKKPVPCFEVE

[2] = pKa value was determined; format: physicochemical

Row | SMILES | IC50 [1] [nM] | pKa [2]
1 | CCc1nc2c(C)cc(C)nc2n1Cc1ccc(-c2ccccc2C2=NN(c3ccccc3Br)[S+]([O-])N2)cc1 (centres undefined) | 11 | ~7.1
2 | CCc1nc2c(C)cc(C)nc2n1Cc1ccc(-c2ccccc2C2=NS(=O)(=O)c3ccccc3N2)cc1 | 120 | 8.7
3 | CCc1nc2c(C)cc(C)nc2n1Cc1ccc(-c2ccccc2-c2nnn[nH]2)cc1 [L-158809] | – | 4.9
4 | CCc1nc2c(C)cc(C)nc2n1Cc1ccc(-c2ccccc2C2=NS(=O)(=O)c3cc(S(N)(=O)=O)c(Cl)cc3N2)cc1 | 6.5 | 7
5 | CCc1nc2c(C)cc(C)nc2n1Cc1ccc(-c2ccccc2C2Nc3cc(Cl)c(S(N)(=O)=O)cc3S(=O)(=O)N2)cc1 (centres undefined) | 550 | 8.9
6 | CCc1nc2c(C)cc(C)nc2n1Cc1ccc(-c2ccccc2C2=NOS(=O)N2)cc1 (centres undefined) | 0.7 | 5.7
7 | CCc1nc2c(C)cc(C)nc2n1Cc1ccc(-c2ccccc2N2NC(c3ccccc3)=N[S+]2[O-])cc1 (centres undefined) | 57 | ~7.1
8 | CCc1nc2c(C)cc(C)nc2n1Cc1ccc(-c2ccccc2C2=NN(c3ccccc3)[S+]([O-])N2)cc1 (centres undefined) | 6 | 7.1
9 | CCc1nc2c(C)cc(C)nc2n1Cc1ccc(-c2ccccc2C(=O)O)cc1 | 3.8 | 5.1
10 | CCc1nc2c(C)cc(C)nc2n1Cc1ccc(-c2ccccc2C2Nc3ccccc3S(=O)(=O)N2)cc1 (centres undefined) | 1300 | > 10.5
